The test system of assay [1] is Phospho-YAP (Ser127) in JHH-5 cells. Description: pYAP HTRF Assay (JHH-5 cells). It is filed as cell-based. Particulars: 2 hours. As to the method: Briefly, JHH-5 cells are suspended at 0.48×10^6 cells/ml in William's E medium without phenol-red (Thermo Fisher Scientific Gibco catalog number A1217601) supplemented with 10% (v/v) heat-inactivated fetal bovine serum (Thermo Fisher Scientific Gibco catalog number 16140071) and penicillin-streptomycin at 100 U/ml each (Thermo Fisher Scientific Gibco catalog number 15140122). Cells are dispensed into 384well clear bottom culture plates (50 ul/well, at 24000 cells per well, Greiner catalog number 781091), and incubated for 24 hours in a cell culture incubator at 37° C. Test compounds are transferred into culture plates containing JHH-5 cells using an Echo550 (Labcyte) acoustic dispenser (50 nl/well), followed by incubation for 2 hours at 37° C. Lysis buffer (part of CisBio kit catalog number 64YAPPEI) is added to the assay plates as a four-fold concentrate (corresponding to 16 ul/well) and incubated for 30 minutes at room temperature with agitation. Lysate is transferred from culture plates into white low-volume 384well assay plates (12 ul/well, Greiner catalog number 784075), followed by the addition of 3 ul/well of detection antibodies (part of CisBio kit catalog number 64YAPPEI: 1:40 dilution of each pYAP d2 antibody and pYAP cryptate antibody stocks). The plates are sealed and incubated overnight (18 hours) at room temperature protected from light. Plates are read on an EnVision plate reader (Perkin Elmer) at emission wavelengths of 665 nm and 620 nm. The HTRF signal ratio x per well is calculated as [x=Signal(665 nm)/Signal(620 nm)×10000] as specified in the manufacturer's protocol.
(In TR-FRET formats the signal depends on donor and acceptor labels being close together.)

Assay [2] has as its system YAP nuclear translocation in HaCaT cells. Put plainly: YAP Translocation Assay (HaCaT Cells). It is filed as cell-based, human. Particulars: Homo sapiens, 24 hours. The gist of the method:
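HaCaT cells (20,000/well) in DMEM + 10% FBS were plated overnight at 37° C, then exposed to compound for 24 h at 37° C. Cells were fixed with PFA, permeabilized with 0.1% Triton/1.5% BSA and imaged by high-content imaging.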

The next assay deals with LATS1 (Homo sapiens (Human), UniProt O95835). Description: LATS1 biochemical assay (Table 1A, Compound Examples 1-290; method in the earlier part).
LATS1, sequence (O95835 whole entry, looked up): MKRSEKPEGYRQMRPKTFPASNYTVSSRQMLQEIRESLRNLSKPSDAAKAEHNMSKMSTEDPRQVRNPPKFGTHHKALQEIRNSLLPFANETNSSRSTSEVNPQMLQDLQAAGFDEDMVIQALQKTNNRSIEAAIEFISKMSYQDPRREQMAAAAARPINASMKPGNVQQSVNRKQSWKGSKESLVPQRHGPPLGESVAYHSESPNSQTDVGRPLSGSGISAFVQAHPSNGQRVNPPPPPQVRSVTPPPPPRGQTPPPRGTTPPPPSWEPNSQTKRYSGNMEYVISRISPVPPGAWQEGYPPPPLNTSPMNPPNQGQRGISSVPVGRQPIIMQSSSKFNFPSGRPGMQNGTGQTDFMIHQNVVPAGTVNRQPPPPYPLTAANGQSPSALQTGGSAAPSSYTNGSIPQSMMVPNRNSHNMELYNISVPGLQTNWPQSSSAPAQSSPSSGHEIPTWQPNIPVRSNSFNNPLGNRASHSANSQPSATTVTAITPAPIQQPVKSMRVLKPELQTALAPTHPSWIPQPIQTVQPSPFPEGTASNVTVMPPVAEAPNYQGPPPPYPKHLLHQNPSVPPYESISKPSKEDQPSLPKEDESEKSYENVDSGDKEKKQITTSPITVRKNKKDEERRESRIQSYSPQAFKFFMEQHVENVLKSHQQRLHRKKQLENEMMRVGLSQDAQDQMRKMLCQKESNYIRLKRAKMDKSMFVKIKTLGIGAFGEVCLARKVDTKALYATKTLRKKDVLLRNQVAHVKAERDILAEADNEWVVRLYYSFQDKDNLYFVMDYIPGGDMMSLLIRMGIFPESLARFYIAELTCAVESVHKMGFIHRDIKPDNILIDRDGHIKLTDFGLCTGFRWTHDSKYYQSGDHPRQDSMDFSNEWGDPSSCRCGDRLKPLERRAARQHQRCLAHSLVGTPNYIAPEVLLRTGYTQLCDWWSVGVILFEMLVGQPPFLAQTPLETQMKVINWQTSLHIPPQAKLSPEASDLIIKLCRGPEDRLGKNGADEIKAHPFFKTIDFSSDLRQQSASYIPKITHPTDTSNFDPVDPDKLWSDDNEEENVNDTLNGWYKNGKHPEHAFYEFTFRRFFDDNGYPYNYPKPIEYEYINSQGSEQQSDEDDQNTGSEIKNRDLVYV
LATS1, sequence (Q7L9L4 whole entry partner, looked up): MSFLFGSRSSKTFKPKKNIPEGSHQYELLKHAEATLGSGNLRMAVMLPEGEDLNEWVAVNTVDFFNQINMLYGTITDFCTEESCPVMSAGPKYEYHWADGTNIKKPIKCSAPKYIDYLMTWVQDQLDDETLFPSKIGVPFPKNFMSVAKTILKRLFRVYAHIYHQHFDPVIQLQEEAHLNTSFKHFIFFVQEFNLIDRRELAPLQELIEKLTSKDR
Assay [3] relates to Phospho-YAP (SER127) in HaCaT cells. Description: pYAP HTRF Assay (HaCaT Cells). It is filed as cell-based, human. To be noted: Homo sapiens, 2 hours. In short, it runs like this:
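HaCaT cells at 5500 cells/well were cultured 48 hours at 37° C, then treated with compound for 2 hours. Phospho-YAP (Ser127) was detected by HTRF after an overnight (20 hrs) room-temperature incubation, read as the 665 nm/620 nm ratio.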

From patent US11458138B2 (Novartis AG, priority 2017, dated 2022) come the findings set out here.

The IC50 is the concentration that inhibits the measured activity by half. Low readings indicate greater potency, high ones weaker potency. By EC50 is commonly meant the concentration at which the effect is half-maximal. High values mean a need for much substance, low ones an effect from little substance.

Where only a bound is given, the exact number is not on record here.

With `CCCNc1nc(-c2c[nH]c3ncccc23)nc2cnccc12` [Example 155, N-propyl-2-{1H-pyrrolo[2,3-b]pyridin-3-yl}pyrido[3,4-d]pyrimidin-4-amine], the half-inhibitory concentration (IC50) was found to be 2600 nM in assay [1], 1 nM against LATS1 and 1580 nM in assay [3]. In assay [2], this molecule yielded an EC50 of 1050 nM.

With `Cc1cnccc1-c1nc(NC(C)(C)C)c2ccncc2n1` [Example 117, N-tert-butyl-2-(3-methylpyridin-4-yl)pyrido[3,4-d]pyrimidin-4-amine], the IC50 in assay [1] is more than 10000 nM; at LATS1, 4 nM; in assay [3], 2310 nM. In assay [2], this molecule had an EC50 of 4470 nM.

`CN(C)CCC(C)(C)Nc1cc(-c2ccncc2F)nc2cnccc12` [Example 276, (3-{[2-(3-fluoropyridin-4-yl)-1,7-naphthyridin-4-yl]amino}-3-methylbutyl)dimethylamine]: the half-maximal inhibitory concentration (IC50) is more than 10000 nM in assay [1] and 17 nM on LATS1. For the same molecule, the 50% effective concentration (EC50) in assay [2] is more than 20000 nM.

Turning to `CCC(C)(C)Nc1nc(-c2ccncc2Cl)nc2cnccc12` [Example 118, 2-(3-chloropyridin-4-yl)-N-(2-methylbutan-2-yl)pyrido[3,4-d]pyrimidin-4-amine], the 50% inhibitory concentration (IC50) in assay [1] was found to be 4000 nM; at LATS1, 5 nM; in assay [3], 2050 nM. In assay [2], this molecule had an EC50 of 5010 nM.

For the molecule `COCCC(C)(C)Nc1nc(-c2ccncc2)nc2cnccc12` [Example 8, N-(4-methoxy-2-methylbutan-2-yl)-2-(pyridin-4-yl)pyrido[3,4-d]pyrimidin-4-amine], the IC50 in assay [1] was found to be 1900 nM; against LATS1, 3 nM; in assay [3], 198 nM. This molecule yielded an EC50 in assay [2] of 1200 nM.

Turning to `CC(C)(Nc1nc(-c2ccncc2)nc2cnccc12)C1CCCCC1` [Example 15, N-(2-cyclohexylpropan-2-yl)-2-(pyridin-4-yl)pyrido[3,4-d]pyrimidin-4-amine], the 50% inhibitory concentration (IC50) in assay [1] amounted to 4100 nM; against LATS1, 4 nM; in assay [3] it was 660 nM. For the same molecule, the EC50 in assay [2] is 3480 nM.

As for `COCCC(C)(C)Nc1cc(-c2ccncc2)nc2cnccc12` [Example 254, N-(4-methoxy-2-methylbutan-2-yl)-2-(pyridin-4-yl)-1,7-naphthyridin-4-amine], the values for the IC50 (in assay [1]; on LATS1; in assay [3]) were 1300 nM, 5 nM and 2910 nM, respectively. The EC50 in assay [2] turned out to be 4630 nM.

For the molecule `CC(C)(C)CC(C)(C)Nc1nc(-c2ccncc2)nc2cnccc12` [Example 72, 2-(pyridin-4-yl)-N-(2,4,4-trimethylpentan-2-yl)pyrido[3,4-d]pyrimidin-4-amine], the figures for the IC50 (in assay [1]; against LATS1; in assay [3]) were 4600 nM, 4 nM and 1170 nM, respectively. Moreover, a half-maximal response in assay [2] (EC50) required 3650 nM.

In the case of `CN(C)CCC(C)(C)Nc1nc(-c2ccncc2)nc2cnccc12` [Example 109, dimethyl(3-methyl-3-{[2-(pyridin-4-yl)pyrido[3,4-d]pyrimidin-4-yl]amino}butyl)amine], the concentration for half-maximal inhibition (IC50) in assay [1] amounted to 1500 nM; in assay [3], 977 nM. Moreover, a half-maximal effect in assay [2] (EC50) was put at 4710 nM.

Take `CC1(C)CC(O)CCN1c1cc(-c2ccncc2Cl)nc2cnccc12` (stereo not shown) [Example 283, 1-[2-(3-chloropyridin-4-yl)-1,7-naphthyridin-4-yl]-2,2-dimethylpiperidin-4-ol]: the results for the IC50 in assay [1] and in assay [3] were more than 10000 nM and 8250 nM, respectively. For the same molecule, in assay [2], a half-maximal response (EC50) required 14200 nM.

As for `CC[C@@H](C)Nc1cc(-c2ccncc2)nc2cnccc12` [Example 257, N-[(2R)-butan-2-yl]-2-(pyridin-4-yl)-1,7-naphthyridin-4-amine], the values for the 50% inhibitory concentration (IC50) (in assay [1]; against LATS1) were more than 10000 nM and 22 nM, respectively. Also, the EC50 in assay [2] was more than 20000 nM.

As to `c1cc(-c2cc(NC3CCCC3)c3ccncc3n2)ccn1` [Example 264, N-cyclopentyl-2-(pyridin-4-yl)-1,7-naphthyridin-4-amine], the results for the half-maximal inhibitory concentration (IC50) in assay [1] and in assay [3] were more than 10000 nM and 14800 nM, respectively. Moreover, the concentration for a half-maximal effect (EC50) in assay [2] is 11200 nM.

As for `CC(C)(C)Nc1cc(-c2ccnc(N)c2)nc2cnccc12` [Example 274, 2-(2-aminopyridin-4-yl)-N-tert-butyl-1,7-naphthyridin-4-amine], the IC50 was more than 10000 nM in assay [1] and 13 nM against LATS1. The molecule also came in with a half-maximal effective concentration (EC50) in assay [2] of 17300 nM.

As to `CC(C)(CNCC(=O)O)Nc1nc(-c2ccncc2)nc2cnccc12` [Example 30, 2-[(2-methyl-2-{[2-(pyridin-4-yl)pyrido[3,4-d]pyrimidin-4-yl]amino}propyl)amino]acetic acid], the results for the IC50 (in assay [1]; on LATS1) were more than 10000 nM and 39 nM, respectively. Besides, the EC50 in assay [2] was more than 20000 nM.

Regarding `COCC(C)(C)Nc1cc(-c2ccncc2)nc2cnccc12` [Example 258, N-(1-methoxy-2-methylpropan-2-yl)-2-(pyridin-4-yl)-1,7-naphthyridin-4-amine], the half-maximal inhibitory concentration (IC50) in assay [1] was more than 10000 nM; at LATS1, 23 nM. For the same molecule, a half-maximal response in assay [2] (EC50) required 9920 nM.

As for `CCCNc1cc(-c2ccncc2)nc2cnccc12` [Example 268, N-propyl-2-(pyridin-4-yl)-1,7-naphthyridin-4-amine], the results for the concentration for half-maximal inhibition (IC50) (in assay [1]; against LATS1) were more than 10000 nM and 18 nM, respectively. In assay [2], this molecule came in with an EC50 of more than 20000 nM.

As for `CCN(CC)c1cc(-c2ccncc2F)nc2cnccc12` [Example 275, N,N-diethyl-2-(3-fluoropyridin-4-yl)-1,7-naphthyridin-4-amine], the results for the IC50 (in assay [1]; at LATS1) were more than 10000 nM and 11 nM, respectively. In assay [2], the response was half-maximal at 15100 nM (EC50).

`Cc1[nH]c2ncccc2c1-c1nc(NC(C)(C)C)c2ccncc2n1` [Example 114, N-tert-butyl-2-{2-methyl-1H-pyrrolo[2,3-b]pyridin-3-yl}pyrido[3,4-d]pyrimidin-4-amine]: the half-maximal effective concentration (EC50) in assay [2] stood at 1330 nM. The IC50 at LATS1 was determined as 2 nM; in assay [3], 565 nM.

`FC(F)(F)C(Cc1ccccc1)Nc1nc(-c2ccncc2)nc2cnccc12` (stereo not shown) [Example 38, 2-(pyridin-4-yl)-N-(1,1,1-trifluoro-3-phenylpropan-2-yl)pyrido[3,4-d]pyrimidin-4-amine]: in assay [2], the concentration giving a half-maximal response (EC50) was more than 20000 nM. Also, the IC50 was 240 nM on LATS1 and more than 10000 nM in assay [3].

In turn, `CCN(c1nc(-c2ccncc2F)nc2cnccc12)C(C)C` [Example 120, N-ethyl-2-(3-fluoropyridin-4-yl)-N-(propan-2-yl)pyrido[3,4-d]pyrimidin-4-amine] showed an EC50 in assay [2] of 2930 nM. For the same molecule, the IC50 was 10 nM at LATS1 and 2140 nM in assay [3].

As to `Cc1nccc2c(NC3(C)CC3)nc(-c3ccncc3)nc12` [Example 199, 8-methyl-N-(1-methylcyclopropyl)-2-(pyridin-4-yl)pyrido[3,4-d]pyrimidin-4-amine], the values for the concentration for half-maximal inhibition (IC50) (in assay [1]; against LATS1) were 3200 nM and 1 nM, respectively. In assay [2], this molecule came in with an EC50 of 9100 nM.

In turn, `CNc1nc(-c2ccncc2)nc2cnccc12` [Example 86, N-methyl-2-(pyridin-4-yl)pyrido[3,4-d]pyrimidin-4-amine] returned a half-maximal effective concentration (EC50) in assay [2] of more than 20000 nM. For the same molecule, the figures for the half-inhibitory concentration (IC50) (on LATS1; in assay [3]) were 26 nM and 56000 nM, respectively.

As for `CC(C)(Nc1nc(-c2ccncc2)nc2cnccc12)c1ccccc1` [Example 81, N-(2-phenylpropan-2-yl)-2-(pyridin-4-yl)pyrido[3,4-d]pyrimidin-4-amine], a half-maximal response in assay [2] (EC50) required 17000 nM. Also, the results for the IC50 (at LATS1; in assay [3]) were 11 nM and 42800 nM, respectively.

For the molecule `CC1(Nc2nc(-n3ccc4ncccc43)nc3cnccc23)CC1` [Example 179, N-(1-methylcyclopropyl)-2-{1H-pyrrolo[3,2-b]pyridin-1-yl}pyrido[3,4-d]pyrimidin-4-amine], the EC50 in assay [2] was more than 20000 nM. The half-maximal inhibitory concentration (IC50) against LATS1 was 2 nM; in assay [3], more than 10000 nM.

With `COc1ccc(Nc2nc(-c3ccncc3)nc3cnccc23)cc1` [Example 91, N-(4-methoxyphenyl)-2-(pyridin-4-yl)pyrido[3,4-d]pyrimidin-4-amine], the half-maximal effective concentration (EC50) in assay [2] is more than 20000 nM. Moreover, the concentration for half-maximal inhibition (IC50) against LATS1 was 148 nM; in assay [3] it was more than 10000 nM.

Consider `Cc1noc(C)c1-c1nc(NC2(C)CC2)c2ccncc2n1` [Example 153, 2-(dimethyl-1,2-oxazol-4-yl)-N-(1-methylcyclopropyl)pyrido[3,4-d]pyrimidin-4-amine], for which the EC50 in assay [2] was more than 20000 nM. The concentration for half-maximal inhibition (IC50) against LATS1 was more than 5000 nM; in assay [3], more than 10000 nM.
